Results: patent US20180235917A1, “COMPOSITIONS, METHODS AND KITS FOR TREATMENT OF DIABETES AND/OR […]” (NuSirt Sciences, Inc., priority 2014, published 2018)
Like-named read-outs stand apart in the source and are kept apart here.

Key:
[1] = tested on: adipocytes (3T3-L1) and myotubes (C2C12); test: Fatty acid oxidation and dose-response screening, cell type not stated; assay type: cell-based, mouse; settings: for synergy with leucine or HMB in stimulating fatty acid oxidation: compound at its no-effect concentration with leucine 0.5 mM or HMB 5 μM
[2] = tested on: C2C12 myotubes; test: Glucose utilization (extracellular acidification response to glucose) in myotubes; assay type: cell-based, mouse
[3] = tested on: diabetic db/db mice; settings: for decrease in blood glucose over the 30 minute linear portion of the insulin tolerance test: insulin 0.75 U/kg
[4] = tested on: LDL receptor knockout mice; test: LDL receptor knockout mice on western diet: plasma lipids, atherosclerosis, macrophage infiltration (Example 7); assay type: in vivo, mouse
Excerpt: LDL receptor knockout (LDLRKO) mice were obtained from Jackson Laboratories (Bar Harbor, Me.), and housed in groups under room temperature in a humidity-controlled environment with a regular light and dark cycle. The mice were provided free access to an atherogenic western diet (WD) containing 0.21% cholesterol (by weight) and 40% calories from fat and water for 4 weeks prior to treatment. For treatment, the mice were given (a) the WD diet alone, (b) WD and 24 g of leucine/kg diet, (c) WD and 24 g of leucine/kg diet and 50 mg nicotinic acid/kg diet, (d) WD and 24 g of leucine/kg diet and 250 mg nicotinic acid/kg diet, or (e) WD and 1000 mg nicotinic acid/kg diet; this is approximately equivalent to a low therapeutic dose of nicotinic acid in hypercholesterolemic humans (˜1,500 mg/day). The treatments were administered for eight weeks continuously.
Blood samples of the mice in all groups were obtained from tails of the mice at following four and eight weeks of administration. The serum/plasma levels of triglyceride, total cholesterol and cholesterol esters were measured. Following treatment, food was removed for four hours and the animals were euthanized.
Blood was collected into EDTA-coated tubes to analyze plasma lipid and cholesterol profiles. Plasma total cholesterol (TC, Pointe Scientific, Canton, Mich.), free cholesterol (FC, Wako, Richmond, Va.) and triglyceride (TG, Wako, Richmond, Va.) concentrations were measured using enzymatic assays according to manufacturer's instructions. Cholesterol ester (CE) was calculated as the difference between TC and FC.
To assess atherosclerosis, the circulatory system was perfused following euthanasia with phosphate-buffered saline (PBS) before removing the heart and aorta. The upper one-third of the heart was dissected and embedded in Optimal Cutting Temperature Compound (Sakura Tissue-Tek, Torrance, Calif.), frozen, and stored at −80° C. Blocks were serially cut at 8 μm intervals and stained with hematoxylin and 0.5% Oil Red O (Sigma-Aldrich) to evaluate aortic sinus atherosclerotic intimal area. Atherosclerotic lesion area and Oil Red O positive area were quantified using Image-Pro Plus software (Media Cybernetics, Bethesda, Md.). Whole aorta (from sinotubular junction to iliac bifurcate) was dissected and fixed in 10% formalin, and the adventitia was cleaned. Aortas were opened along the longitudinal axis and pinned onto black silicon elastomer (Rubber-Cal, Santa Ana, Calif.) for the quantification of atherosclerotic lesion area. The percentage of total aortic surface covered with atherosclerotic lesions was quantified by Image-Pro Plus software (Media Cybernetics, Bethesda, Md.) and used to determine the total lesion area.
To assess macrophage infiltration, Sections of aortic sinus were immuno-stained with rat monoclonal antibody against macrophage-specific CD68 (Clone FA11, 1:75, AbD Serotec, Raleigh, N.C.) followed by staining with alkaline phosphatase-conjugated mouse anti-rat (for CD68, 1:50) secondary antibodies (Jackson ImmunoResearch laboratories, West Grove, Pa.). Control slides contain no primary antibody. The CD68-positive areas were analyzed using Image-Pro Plus software (Media Cybernetics, Bethesda, Md.).

[5] = target: T1, Sirt3 (Mus musculus, UniProt Q8R104); test: Sirt3 stimulation; assay type: cell-based; settings: leucine 0.5 mM, HMB 5 μM, resveratrol 200 nM
T1 construct: endogenous in cells; host or cells: 3T3-L1 adipocytes and/or C2C12 myotubes (inferred)
T1 sequence (Q8R104 1-334): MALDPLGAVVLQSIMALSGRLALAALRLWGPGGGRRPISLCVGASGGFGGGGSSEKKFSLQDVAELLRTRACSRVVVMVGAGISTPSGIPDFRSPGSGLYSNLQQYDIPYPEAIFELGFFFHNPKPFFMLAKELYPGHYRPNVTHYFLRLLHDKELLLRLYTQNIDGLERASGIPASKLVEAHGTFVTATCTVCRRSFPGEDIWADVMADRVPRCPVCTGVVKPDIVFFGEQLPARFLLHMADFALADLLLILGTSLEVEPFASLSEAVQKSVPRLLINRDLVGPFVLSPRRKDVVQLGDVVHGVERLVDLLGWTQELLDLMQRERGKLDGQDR

[6] = tested on: diet-induced obesity mice; test: High fat diet-induced obese, insulin resistant mice: GTT, ITT, glucose, insulin, HOMAIR, muscle Western blot (Example 12); assay type: in vivo, C57/BL6 mice; settings: HFD, no metformin; for glucose tolerance test (fasting and post-prandial hyperglycemia): Leu 24 g/kg diet with or without Res 12.5 mg/kg diet
[7] = tested on: Caenorhabditis elegans; test: Lifespan of C. elegans (Example 10); assay type: in vivo; settings: basal conditions; leucine 0.5 mM, nicotinic acid 10 nM
Experimental: Eggs were hatched on a starved plate overnight. […] All treatments were added with the indicated concentrations to E. coli the agar plates. […] The worms were maintained at 20° C. throughout the duration of the study. Worms were transferred to new plates daily to eliminate progeny. […] The study was continued until the last animal was dead. Data were analyzed via Kaplan-Meier survival curves using Prism 6 (GraphPad Software) and statistical significance was determined by the Log-rank (Mantel-Cox) test.

[8] = high dose metformin 300 mg/kg bw

## O=C(O)/C=C/c1ccc(O)c(O)c1 [Caffeic acid]
[1]; compound alone
  concentrations that exert no effect (dose-response curves; sub-therapeutic dose): ≤ 1000 nM

## Fucoxanthin
[1]; compound alone
  concentrations that exert no effect (dose-response curves; sub-therapeutic dose): ≤ 100 nM

## O=C(O[C@@H]1Cc2c(O)cc(O)cc2O[C@@H]1c1cc(O)c(O)c(O)c1)c1cc(O)c(O)c(O)c1 [EGCG, epigallocatechin gallate]
[2]; extracellular acidification response to glucose, concentrations as in E26
  increase in glucose utilization in myotubes: no independent effect
[1]; compound alone
  direct stimulation of fatty acid oxidation: minimally active
[1]
  synergy with leucine or HMB in stimulating fatty acid oxidation: do not detect synergistic effects

## CC(C)Cn1c(=O)n(C)c(=O)c2[nH]cnc21 [IBMX, 3-isobutyl-1-methylxanthine, reference compound]
[1]
  synergy with leucine or HMB in stimulating fatty acid oxidation: weak but statistically significant synergy with HMB, but not leucine

## OC[C@@H](O)[C@@H](O[C@H]1O[C@H](CO)[C@@H](O)[C@H](O)[C@H]1O)[C@H](O)[C@@H](O)CO [Maltitol]
[1]; compound alone
  concentrations that exert no effect (dose-response curves; sub-therapeutic dose): ≤ 100 nM
[1]
  synergy with leucine or HMB in stimulating fatty acid oxidation: no synergy

## O[C@H]1[C@H](O)[C@@H](O)[C@H](O)[C@@H](O)[C@H]1O [Myo-inositol]
[1]
  synergy with leucine or HMB in stimulating fatty acid oxidation: no synergy

## CN(C)C(=N)N=C(N)N [Metformin]
[3]; db/db mice, 2 weeks, high dose metformin 300 mg/kg bw (1.5 g/kg diet)
  reduction of plasma insulin: 27%
[3]; [8]
  effect on plasma glucose: no significant effect
  effects on body composition: no significant effects
[3]; high dose metformin 300 mg/kg bw, control 62
  plasma insulin: 45 uU/mL
[3]; low dose (150 mg/kg) and very low dose (50 mg/kg) metformin alone
  effects on any variable studied: no significant independent effects
[3]; low or very low dose of metformin, alone or as blend
  decrease in blood glucose over the 30 minute linear portion of the insulin tolerance test: minimal changes
[3]; metformin at any dosage in the absence of HMB
  effect on visceral fat mass: not affected
[3]; standard metformin dose (1.5 g/kg diet)
  decrease in blood glucose over the 30 minute linear portion of the insulin tolerance test: ~60 mg/dL

## Cn1c(=O)c2[nH]cnc2n(C)c1=O [Theophylline, reference compound]
[1]; compound alone
  concentrations that exert no effect (dose-response curves; sub-therapeutic dose): below 1 μM

## O=c1oc2c(O)c(O)cc3c(=O)oc4c(O)c(O)cc1c4c23 [Ellagic acid]
[1]; even at high concentrations (50 μM)
  activity in dose-response curves: little activity

## OC[C@@H](O)[C@@H](O)[C@H](O)[C@@H](O)CO [Sorbitol]
[1]
  synergy with leucine or HMB in stimulating fatty acid oxidation: no synergy

## CC(C)C[C@H](N)C(=O)O [Leucine, leucine]
[4]; eight weeks, doses as E77
  decrease in aortic macrophage infiltration (CD68 positive area): significant independent effect
[4]; eight weeks, nicotinic acid 1,000 mg/kg diet, leucine 24 g/kg diet, or leucine + nicotinic acid 50 mg/kg diet, vs western diet alone
  decrease in atherosclerotic lesion size (lesion and lipid area): exerted an independent effect
[4]; four weeks, doses as E73
  decrease in plasma cholesterol esters: no independent effect
[4]; four weeks, western diet + nicotinic acid 1,000 mg/kg diet, leucine 24 g/kg diet, or leucine + nicotinic acid 50 or 250 mg/kg diet
  decrease in plasma total cholesterol: no independent effect
[5]
  stimulation of Sirt3: no independent effects
[2]; C2C12 myotubes, 5 nM insulin, galegine 5 μM, leucine 0.5 mM
  increase in insulin-stimulated glucose utilization: no effect
[6]
  glucose tolerance test (fasting and post-prandial hyperglycemia): not significantly affected
[6]; listed as leucine
  glucose tolerance test (fasting and post-prandial hyperglycemia): no independent effect
[6]; Leu 24 g/kg diet
  insulin tolerance test: no independent effect
[7]
  effect on lifespan: no independent effect
